Literature values, collected in patent US20070065374A1, “Nanoparticulate leukotriene receptor antagonist/corticosteroid formulations” (Elan Pharma International Limited, priority 2005, published 2007).
Read-outs that look alike come from different tables or passages of the source.

What was measured:
[1] = for time to peak plasma concentrations: after oral administration
[2] = since the approval of zafirlukast

In the case of `CC(C)(O)c1ccccc1CC[C@@H](SCC1(CC(=O)O)CC1)c1cccc(/C=C/c2ccc3ccc(Cl)cc3n2)c1` [Montelukast], the “effect of food on oral bioavailability” value ([1]; 5 mg tablet (pediatric dose)) is listed as “reduced by food”, the “effect of food on oral bioavailability” value ([1]; 10 mg tablet (adult dose)) is listed as “unaffected by food” and the “time to peak plasma concentrations” value [1] is listed as “approximately three”.

In the case of `COc1cc(C(=O)NS(=O)(=O)c2ccccc2C)ccc1Cc1cn(C)c2ccc(NC(=O)OC3CCCC3)cc12` [Zafirlukast], the “time to peak plasma concentrations” value [1] is given as “approximately three”, the “reduction of bioavailability by food” value ([1]; oral, in 75% of patients) is given as “approximately 40%” and the Churg-Strauss syndrome reported [2] is given as “at least eight”.
